Consider 14 compounds from patent publication US8673950B2, “Dihydrooxazol-2-amine derivatives” (Hoffmann-LaRoche Inc., priority 2010, dated 2014).

Structures are written as SMILES.

The target in one experiment is mouse TAAR1 (Mus musculus (Mouse), UniProt Q923Y8). Description: Radioligand binding assay on mouse TAAR1. As to conditions: for Ki: mouse TAAR1, membranes of stably transfected HEK-293 cells, first value of cell mouse/rat.
The target of another experiment is rat TAAR1 (Rattus norvegicus (Rat), UniProt Q923Y9). The experiment in a line: Radioligand binding assay on rat TAAR1. The following applies: for Ki: rat TAAR1, membranes of stably transfected HEK-293 cells, second value of cell mouse/rat. An outline of the steps: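 Membranes from HEK293 cells stably expressing rat TAAR1, in 20 mM HEPES-NaOH pH 7.4 with 0.1 mM EDTA. Displacement of ^3[H]-(S)-4-[(ethyl-phenyl-amino)-methyl]-4,5-dihydro-oxazol-2-ylamine, nonspecific binding with 10 μM unlabeled ligand; compounds 10 pM to 10 μM in duplicate, 1 hr at 4° C. Filtration, then scintillation counting.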
Chain of rat TAAR1 (Q923Y9 whole entry): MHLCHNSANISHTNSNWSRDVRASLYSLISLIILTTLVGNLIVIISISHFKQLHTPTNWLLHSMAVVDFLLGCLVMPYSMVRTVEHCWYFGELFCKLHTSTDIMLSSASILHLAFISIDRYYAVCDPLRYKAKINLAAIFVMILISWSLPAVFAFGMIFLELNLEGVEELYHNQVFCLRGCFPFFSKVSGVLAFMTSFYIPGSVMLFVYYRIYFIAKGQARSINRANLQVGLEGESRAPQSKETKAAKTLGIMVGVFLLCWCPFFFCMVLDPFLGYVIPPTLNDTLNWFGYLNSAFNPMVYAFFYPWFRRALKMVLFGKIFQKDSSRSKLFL

Chain of mouse TAAR1 (Q923Y8 whole entry): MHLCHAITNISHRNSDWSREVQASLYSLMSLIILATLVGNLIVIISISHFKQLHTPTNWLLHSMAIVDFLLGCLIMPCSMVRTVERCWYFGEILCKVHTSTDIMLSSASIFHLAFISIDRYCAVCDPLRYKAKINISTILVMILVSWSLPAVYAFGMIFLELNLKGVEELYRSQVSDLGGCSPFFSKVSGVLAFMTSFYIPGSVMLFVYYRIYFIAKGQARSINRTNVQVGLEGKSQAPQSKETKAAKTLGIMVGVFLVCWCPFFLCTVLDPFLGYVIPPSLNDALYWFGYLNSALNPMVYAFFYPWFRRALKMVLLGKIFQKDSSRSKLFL

On to `NC1=N[C@@H](CCc2ccc(NC(c3ccc(Cl)cc3)C(F)(F)F)cc2)CO1` (stereo partly drawn) [Example 63, (4S)-4-(4-(1-(4-Chlorophenyl)-2,2,2-trifluoroethylamino)phenethyl)-4,5-dihydrooxazol-2-amine], for which the Ki on mouse TAAR1 was 0.0084 µM; on rat TAAR1, 0.0022 µM.

For the compound `NC1=N[C@@H](CCc2ccc(N[C@@H](c3ccc(Cl)cc3)C(F)(F)F)cc2)CO1` [Example 64, (+)-(S)-4-(4-((S)-1-(4-Chlorophenyl)-2,2,2-trifluoroethylamino)phenethyl)-4,5-dihydrooxazol-2-amine], the Ki amounted to 0.063 µM on mouse TAAR1 and 0.002 µM at rat TAAR1.

On to `NC1=N[C@@H](CCc2ccc(N[C@H](c3ccc(Cl)cc3)C(F)(F)F)cc2)CO1` [Example 65, (−)-(S)-4-(4-((R)-1-(4-chlorophenyl)-2,2,2-trifluoroethylamino)phenethyl)-4,5-dihydrooxazol-2-amine], for which the Ki at mouse TAAR1 came out at 0.0244 µM; at rat TAAR1, 0.0032 µM.

In the case of `NC1=N[C@@H](CCc2ccc(NC(c3cccc(F)c3)C(F)(F)F)cc2)CO1` (stereo partly drawn) [Example 66, (4S)-4-(4-(2,2,2-Trifluoro-1-(3-fluorophenyl)ethylamino)phenethyl)-4,5-dihydrooxazol-2-amine], the Ki on mouse TAAR1 stood at 0.023 µM; at rat TAAR1, 0.0064 µM.

`NC1=N[C@@H](CCc2ccc(NC(c3ccc(C(F)(F)F)cc3)C(F)(F)F)cc2)CO1` (stereo partly drawn) [Example 67, (4S)-4-(4-(2,2,2-Trifluoro-1-(4-(trifluoromethyl)phenyl)ethylamino)phenethyl)-4,5-dihydrooxazol-2-amine]: the figures for the inhibitory constant (Ki) at mouse TAAR1 and on rat TAAR1 were 0.0412 µM and 0.0084 µM, respectively.

Consider `NC1=N[C@@H](CCc2ccc(NC(c3ccc(Cl)cn3)C(F)(F)F)cc2)CO1` (stereo partly drawn) [Example 68, (4S)-4-(4-(1-(5-Chloropyridin-2-yl)-2,2,2-trifluoroethylamino)phenethyl)-4,5-dihydrooxazol-2-amine], for which the Ki at mouse TAAR1 amounted to 0.0651 µM; at rat TAAR1, 0.0265 µM.

`NC1=N[C@@H](CCc2ccc(NC(c3cc(Cl)cc(Cl)c3)C(F)(F)F)cc2)CO1` (stereo partly drawn) [Example 69, (4S)-4-(4-(1-(3,5-Dichlorophenyl)-2,2,2-trifluoroethylamino)phenethyl)-4,5-dihydrooxazol-2-amine]: the results for the inhibitory constant (Ki) at mouse TAAR1 and at rat TAAR1 were 0.0355 µM and 0.0407 µM, respectively.

As for `COc1cccc(C(Nc2ccc(CC[C@H]3COC(N)=N3)cc2)C(F)(F)F)n1` (stereo partly drawn) [Example 70, (4S)-4-(4-(2,2,2-Trifluoro-1-(6-methoxypyridin-2-yl)ethylamino)phenethyl)-4,5-dihydrooxazol-2-amine], the Ki at mouse TAAR1 is 0.134 µM; on rat TAAR1, 0.0205 µM.

As for `NC1=N[C@@H](CCc2ccc(Nc3ncc(Cl)cn3)nc2)CO1` [Example 71, {5-[2-((S)-2-Amino-4,5-dihydro-oxazol-4-yl)-ethyl]-pyridin-2-yl}-(5-chloro-pyrimidin-2-yl)-amine], the Ki at mouse TAAR1 was determined as 0.0137 µM; at rat TAAR1, 0.0011 µM.

`Cc1cc(CC[C@H]2COC(N)=N2)ccc1Nc1ncc(Cl)cn1` [Example 72, {4-[2-((S)-2-Amino-4,5-dihydro-oxazol-4-yl)-ethyl]-2-methyl-phenyl}-(5-chloro-pyrimidin-2-yl)-amine]: the figures for the Ki at mouse TAAR1 and at rat TAAR1 were 0.0019 µM and 0.0007 µM, respectively.

Regarding `NC1=N[C@@H](CCc2ccc(Nc3ncc(OCC(F)(F)F)cn3)cc2)CO1` [Example 73, (S)-4-(4-(5-(2,2,2-Trifluoroethoxy)pyrimidin-2-ylamino)phenethyl)-4,5-dihydrooxazol-2-amine], the values for the Ki at mouse TAAR1 and at rat TAAR1 were 0.02 µM and 0.0028 µM, respectively.

Take `CS(=O)(=O)c1cnc(Nc2ccc(CC[C@H]3COC(N)=N3)cc2)nc1` [Example 74, (S)-4-(4-(5-(Methylsulfonyl)pyrimidin-2-ylamino)phenethyl)-4,5-dihydrooxazol-2-amine]: the Ki was 0.046 µM on mouse TAAR1 and 0.0146 µM on rat TAAR1.

Turning to `C[S+]([O-])c1cnc(Nc2ccc(CC[C@H]3COC(N)=N3)cc2)nc1` (stereo partly drawn) [Example 75, (4S)-4-(4-(5-(Methylsulfinyl)pyrimidin-2-ylamino)phenethyl)-4,5-dihydrooxazol-2-amine], the Ki on mouse TAAR1 is 0.48 µM; at rat TAAR1, 0.104 µM.

On to `CCN(C[C@H]1COC(N)=N1)c1ccccc1` [^3[H]-(S)-4-[(ethyl-phenyl-amino)-methyl]-4,5-dihydro-oxazol-2-ylamine, reference compound], for which the Kd at mouse TAAR1 (mouse TAAR1 membranes, saturation curve, read-out: dissociation constant (Kd) of the radioligand) was about 0.7 nM; on rat TAAR1 (rat TAAR1 membranes, saturation curve, read-out: dissociation constant (Kd) of the radioligand) it was about 2.3 nM.
